# Molecular target: T1, JAK3 (Homo sapiens, UniProt P52333)
# T1 construct: purchased Invitrogen
# T1 sequence (P52333 1-1124): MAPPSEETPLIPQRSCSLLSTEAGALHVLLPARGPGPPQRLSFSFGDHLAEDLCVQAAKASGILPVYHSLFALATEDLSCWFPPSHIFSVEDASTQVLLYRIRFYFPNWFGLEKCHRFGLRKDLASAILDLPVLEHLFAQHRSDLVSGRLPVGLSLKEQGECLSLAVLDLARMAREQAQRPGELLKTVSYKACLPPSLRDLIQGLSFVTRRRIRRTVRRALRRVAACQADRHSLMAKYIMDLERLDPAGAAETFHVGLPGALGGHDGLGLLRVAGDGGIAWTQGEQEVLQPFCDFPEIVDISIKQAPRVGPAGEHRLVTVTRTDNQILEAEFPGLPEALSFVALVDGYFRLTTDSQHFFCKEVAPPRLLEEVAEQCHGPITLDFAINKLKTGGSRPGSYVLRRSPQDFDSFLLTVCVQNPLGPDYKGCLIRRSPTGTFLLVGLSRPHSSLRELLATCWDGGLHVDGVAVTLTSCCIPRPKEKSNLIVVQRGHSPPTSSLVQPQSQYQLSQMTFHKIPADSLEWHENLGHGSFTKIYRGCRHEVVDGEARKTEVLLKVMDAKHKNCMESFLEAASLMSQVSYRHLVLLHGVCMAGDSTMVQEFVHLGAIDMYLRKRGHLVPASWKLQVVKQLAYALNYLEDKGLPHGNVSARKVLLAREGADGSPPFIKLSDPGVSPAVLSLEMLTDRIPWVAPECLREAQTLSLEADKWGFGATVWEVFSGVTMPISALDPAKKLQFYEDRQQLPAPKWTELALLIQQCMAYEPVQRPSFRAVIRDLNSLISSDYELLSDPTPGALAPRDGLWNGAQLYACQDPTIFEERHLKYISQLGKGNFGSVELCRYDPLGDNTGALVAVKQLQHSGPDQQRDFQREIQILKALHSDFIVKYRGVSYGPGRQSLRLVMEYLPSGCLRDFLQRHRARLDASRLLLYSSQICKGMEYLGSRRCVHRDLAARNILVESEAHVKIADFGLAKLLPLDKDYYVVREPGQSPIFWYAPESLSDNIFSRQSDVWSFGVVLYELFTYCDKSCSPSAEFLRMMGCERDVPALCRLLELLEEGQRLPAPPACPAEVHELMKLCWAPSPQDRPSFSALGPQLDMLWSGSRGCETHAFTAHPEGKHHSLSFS
# Assay: z-lyte kinase assay, JAK3
# Type: biochemical
# Method in brief: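 Each kinase was mixed with peptide substrate, compound (dilution series made at 1–0.0001 μM in 4% DMSO) and ATP added from a 5~300 μM solution, then incubated 60 min at RT. After development reagent and stop solution, fluorescence was read at 400 nm excitation/520 nm emission and IC50 calculated.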
smiles,measurement,value
"C=CC(=O)Nc1cccc(Oc2nc(Nc3ccc(N4CCN(C)CC4)cc3)nc3ccsc23)c1 [Example 1, N-(3-(2-(4-(4-methylpiperazin-1-yl)phenylamino)thieno[3,2-d]pyrimidine-4-yloxy)phenyl)acrylamide]",IC50,≤ 50 nM

# Source: USRE46511E1, “Fused pyrimidine derivatives for inhibition of tyrosine kinase activity” (HANMI SCIENCE CO., LTD., priority 2010, dated 2017)
